Test results published in patent US11591359B2, “Enzyme-specific intracellularly-retained red fluorescent probe” (priority 2016, dated 2023).
“Also recorded” adds a separate entry of the source.

Assays:
β-galactosidase [1] = target: T1, β-galactosidase (Escherichia coli, UniProt P00722); assay: Changes in absorption and fluorescence spectra by enzyme reaction; type: biochemical; details: 1 μM probe in PBS buffer, 5U β-galactosidase; for fluorescence emission in response to enzyme activity of β-galactosidase: excitation 610 nm, fluorescence 638 nm, 3600 seconds
Description: For the probe compounds of the present invention obtained in Example 1 (4-CH2F-SPiDER-RED-βGal and 2-CH2F-SPiDER-RED-βGal), changes in absorption and fluorescence spectra according to the addition of β-galactosidase were measured. The measurement results of 4-CH2F-SPiDER-RED-βGal are shown in FIG. 1, and the measurement results of 2-CH2F-SPiDER-RED-βGal are shown in FIG. 2.
The measurement conditions are as follows: an excitation wavelength of 610 nm, a slit (excitation/fluorescence) of 2.5 nm/2.5 nm, and a photomultiplier voltage of 700 V.
Measurements were carried out by adding 5U β-galactosidase to 2-CH2F-SPiDER-RED-βGal prepared at 1 μM in a PBS buffer solution. […] The measurement conditions are as follows: an excitation wavelength of 610 nm, a slit (excitation/fluorescence) of 2.5 nm/2.5 nm, and a photomultiplier voltage of […].

β-galactosidase [2] = target: T1, β-galactosidase; assay: Labeling of fluorescent dye to BSA protein by β-galactosidase enzyme reaction in presence of BSA (SDS-PAGE fluorescence); type: biochemical; details: 1 mg/mL BSA, 5U β-galactosidase in PBS; for fluorescent labeling of BSA (fluorescence at the position of BSA after SDS electrophoresis): 10 μM compound, excitation 488 nm, fluorescence 540 to 600 nm
Description: The measurement results of 4-CH2F-SPiDER-RED-βGal are shown in FIG. 3, and the measurement results of 2-CH2F-SPiDER-RED-βGal are shown in FIG. 4.
Using 1) 10 μL of a PBS buffer solution containing 10 μM […], 1 mg/mL BSA, and 5U β-galactosidase, 2) 10 μL of a PBS buffer solution containing 10 μM 4-CH2F-SPiDER-RED-βGal and 1 mg/mL BSA, 3) 10 μL of a PBS buffer solution containing 10 μM 4-CH2F-SPiDER-RED-βGal and 5U β-galactosidase, 4) 10 μL of a PBS buffer solution containing only 10 μM 4-CH2F-SPiDER-RED-βGal, and 5) 10 μL of a PBS buffer solution containing 10 μM 4-CH2OH-SPiDER-RED, the reaction products were subjected to SDS-PAGE (running gel: 10%, stacking gel: 4%, electrophoresis voltage: 200 V). […] After observation, each gel was Coomassie stained and the position of the BSA on the gel was confirmed (FIG. 3(b)).
FIGS. 4(a) and 4(b) show the results of similar measurement using 10 μM 2-CH2F-SPiDER-RED-βGal instead of 10 μM 4-CH2F-SPiDER-RED-βGal.

[3] = tested on: cells not expressing β-galactosidase (HEK); assay: Fluorescence imaging of living cells, co-cultured cells not expressing β-galactosidase; type: cell-based; details: 37° C. for 30 minutes, no washing; excitation 594 nm, fluorescence 610 to 700 nm
Description: (§1) 4-CHF2-SPiDER-RED-βGal was added to a dish in which cells expressing β-galactosidase (HEK-lacZ) and cells not expressing β-galactosidase (HEK) were co-cultured, and incubated at 37° C. for 30 minutes. The HEK cells were previously stained with CellTracker (TM) Green. A fluorescence image and a transmitted light image were acquired using a confocal microscope (TCS SP5X; manufactured by Leica). White light laser (WLL) was used as laser, and HCX PL APO CS 40×/1.25 (40 times, manufactured by Leica) was used as an objective lens. The observation conditions were as follows: an excitation wavelength: 594 nm, a fluorescence wavelength: 610 to 700 nm, and a scale: 25 μm.

[4] = tested on: Wing discs of a drosophila (en-lacZ/dpp-GFP) expressing β-galactosidase and GFP; assay: Non-fixed fluorescence imaging of living biological tissue having β-galactosidase activity; type: cell-based, Drosophila melanogaster; details: room temperature for 2 hours, excitation 594 nm, fluorescence 601 to 681 nm
Description: Next, we have examined whether the probe compound of the present invention, 4-CHF2-SPiDER-RED-βGal, can be applied to fluorescence imaging of living biological tissues by using drosophila tissues.
Wing discs of a drosophila (Drosophila melanogaster, en-lacZ/dpp-GFP) expressing β-galactosidase and GFP in some tissues were incubated with 4-CHF2-SPiDER-RED-βGal and Hoechst 33342 at room temperature for 2 hours, and then observed under a confocal microscope (TCS SP8, manufactured by Leica). White light laser (WLL) was used as laser, and HCX PL APO CS 40×/1.25 (40 times, manufactured by Leica) was used as an objective lens. The measurement conditions are as follows: excitation wavelengths: 405 nm (Hoechst 33342), 488 nm (GFP), 594 nm (4-CHF2-SPiDER-RED-βGal), fluorescence wavelengths: 420 to 490 nm (Hoechst 33342), 490 to 570 nm (GFP), 601 to 681 nm (4-CHF2-SPiDER-RED-βGal), and a scale: 75 μm.

[5] = tested on: cells expressing β-galactosidase (HEK-lacZ); assay: Fluorescence imaging of living cells expressing β-galactosidase (co-culture, confocal microscope); type: cell-based; details: 37° C. for 30 minutes, no washing; excitation 594 nm, fluorescence 610 to 700 nm
Description: as §1

T1 sequence (P00722 2-1024): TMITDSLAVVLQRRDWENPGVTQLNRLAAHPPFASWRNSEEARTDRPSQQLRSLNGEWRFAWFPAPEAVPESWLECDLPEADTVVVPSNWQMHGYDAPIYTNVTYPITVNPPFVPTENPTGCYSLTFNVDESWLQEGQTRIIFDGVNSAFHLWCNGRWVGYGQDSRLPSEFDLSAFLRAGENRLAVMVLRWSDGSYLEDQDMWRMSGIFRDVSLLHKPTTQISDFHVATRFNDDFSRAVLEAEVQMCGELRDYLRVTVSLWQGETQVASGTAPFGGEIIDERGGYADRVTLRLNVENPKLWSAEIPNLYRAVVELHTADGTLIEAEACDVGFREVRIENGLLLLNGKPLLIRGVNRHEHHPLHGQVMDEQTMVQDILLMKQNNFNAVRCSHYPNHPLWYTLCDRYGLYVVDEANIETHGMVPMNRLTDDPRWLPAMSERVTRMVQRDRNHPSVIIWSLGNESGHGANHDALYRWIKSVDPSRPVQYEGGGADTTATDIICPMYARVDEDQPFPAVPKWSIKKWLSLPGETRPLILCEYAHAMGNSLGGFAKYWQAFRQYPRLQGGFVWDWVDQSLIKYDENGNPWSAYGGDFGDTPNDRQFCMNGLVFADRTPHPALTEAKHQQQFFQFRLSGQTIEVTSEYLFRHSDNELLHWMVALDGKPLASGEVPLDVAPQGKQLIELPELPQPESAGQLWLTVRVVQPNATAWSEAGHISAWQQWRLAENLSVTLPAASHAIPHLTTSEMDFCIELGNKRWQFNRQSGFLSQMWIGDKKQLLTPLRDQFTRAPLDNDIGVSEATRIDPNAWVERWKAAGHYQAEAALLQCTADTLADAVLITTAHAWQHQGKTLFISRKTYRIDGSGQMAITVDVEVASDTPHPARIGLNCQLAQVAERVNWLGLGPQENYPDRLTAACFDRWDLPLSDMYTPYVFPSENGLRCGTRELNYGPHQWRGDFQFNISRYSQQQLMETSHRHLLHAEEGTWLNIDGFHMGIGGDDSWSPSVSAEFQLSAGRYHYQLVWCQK

| SMILES | fluorescence emission in response to enzyme activity of β-galactosidase (β-galactosidase [1]) | fluorescent labeling of BSA (fluorescence at the position of BSA after SDS electrophoresis) (β-galactosidase [2]) | fluorescent labeling of BSA (fluorescence at the position of BSA after SDS electrophoresis) (β-galactosidase [2]; listed as 2-CHF2-SPiDER-RED-βGal) | fluorescence intensity of labeled BSA (comparison of the two probes) (β-galactosidase [2]; 10 μM probe) | reactivity with the enzyme (β-galactosidase [2]; 10 μM probe) | red fluorescence signal in HEK cells not expressing β-galactosidase [3] | fluorescence increasing rate (comparison of the two probes) (β-galactosidase [1]) | reactivity with β-galactosidase (comparison of the two probes) (β-galactosidase [1]) | selective fluorescence imaging of the region / cells having β-galactosidase activity in living tissue ([4]; with Hoechst 33342, listed as 4-CHF2-SPiDER-RED-βGal) | diffusion of fluorescence of the enzyme reaction product in tissue [4] | red fluorescence in HEK-lacZ cells [5] |
| --- | --- | --- | --- | --- | --- | --- | --- | --- | --- | --- | --- |
| CN(C)c1ccc2c(c1)[Si](C)(C)c1cc(O[C@@H]3O[C@H](CO)[C@H](O)[C@H](O)[C@H]3O)c(CF)cc1C21OC(=O)c2ccccc21 (some centres unmarked) [2-CH2F-SPiDER-RED-βGal] | emit fluorescence specifically in response to enzyme activity of β-galactosidase | fluorescently label bovine serum albumin (BSA) protein | BSA was fluorescently labeled | lower than that of 4-CHF2-SPiDER-RED-βGal | low | – | – | – | – | – | – |
| CN(C)c1ccc2c(c1)[Si](C)(C)c1c(ccc(O[C@@H]3O[C@H](CO)[C@H](O)[C@H](O)[C@H]3O)c1CF)C21OC(=O)c2ccccc21 (some centres unmarked) [4-CH2F-SPiDER-RED-βGal] | emit fluorescence specifically in response to enzyme activity of β-galactosidase | fluorescently label bovine serum albumin (BSA) protein | – | – | – | no red fluorescence signal was obtained | higher fluorescence increasing rate than 2-CHF2-SPiDER-RED-βGal | higher reactivity with β-galactosidase | selective fluorescence imaging of the region having β-galactosidase activity was possible; also recorded: can be detected at a single-cell level | no diffusion of fluorescence | red fluorescence derived from the test compound was observed only in HEK-lacZ cells |
| CN(C)c1ccc2c(c1)[Si](C)(C)c1c(ccc(O)c1CO)C21OC(=O)c2ccccc21 (centres unmarked) [4-CH2OH-SPiDER-RED, reference compound] | – | fluorescence was not observed | – | – | – | – | – | – | – | – | – |
